Laboratory results published in US7084166B2, “Bis-heterocyclic compounds with antitumour and chemosensitising activity” (Sigma-Tau Industrie Farmaceutichee Riunite S.p.A., priority 2000, dated 2006).

Legend:
Type in all cases: cell-based
[1] = test system: LoVo (human colon adenocarcinoma); assay: Cytotoxicity test on sensitive tumour cell lines (sulforodamine B test); conditions: Homo sapiens, LoVo; 24 h incubation, survival after 48 h; ± S.D.; read-out: antiproliferative activity IC50, Lovo
Experimental: (§1) This test was used to evaluate the survival of the human cell lines MCF-7 (human mammary carcinoma), LoVo (human colon adenocarcinoma), and MES-SA (human uterine sarcoma). The tumour cells were incubated with the compound, at scalar concentrations, (500 μM÷0.97 μM) for 24 hours; the compound was then removed and cell survival was evaluated after 48 hours using the sulforodamine B test (J. Natl. Cancer Inst. 82, 1107–1112). The antiproliferative activity of the compounds was evaluated in terms of the IC50 (concentration of the molecule that inhibits 50% of cell survival) processed with a curve-fitting program (Am. J. Physiol. 1978., 235, E97–E102) and expressed as μM±S.D.

[2] = test system: MCF-7 (human mammary carcinoma); assay: as above; conditions: Homo sapiens, MCF7; 24 h incubation, survival after 48 h; ± S.D.; read-out: antiproliferative activity IC50, MCF-7
Experimental: as §1

[3] = test system: MES-SA (human uterine sarcoma); assay: as above; conditions: Homo sapiens, MES-SA; 24 h incubation, survival after 48 h; ± S.D.; read-out: antiproliferative activity IC50, Mes-Sa
Experimental: as §1

[4] = test system: LoVo-Dx (human colon adenocarcinoma); assay: Cytotoxicity test on resistant tumour cell lines, tested compound alone; conditions: Homo sapiens, LoVo/DX; 24 h incubation, survival after 48 h; ± SD
Experimental: (§2) This test was used to evaluate the survival of human cell lines resistant to doxorubicin (about 100 times) and cross-resistant to daunorubicin, actinomycin D, mitoxantrone, vincristine, vinblastin, taxol, colchicine, and etoposide.
(§3) The following cell lines were used: MCF-7-Dx (human mammary carcinoma), LoVo-Dx (human colon adenocarcinoma), MES-SA Dx (human uterine sarcoma).
(§4) Before using the association doxorubicin-tested compound, the cytotoxicity of the cells was evaluated with the tested compound (alone) as follows: the cells were incubated with the compound, at scalar concentrations (500 μM÷0.97 μM), for 24 hours; the compound was then removed and cell survival was evaluated after 48 hours with the above-mentioned sulforodamine B test. The antiproliferative activity of the compounds was evaluated in terms of IC50 (concentration of the compound that inhibits 50% of cell survival) processed with the above-mentioned curve-fitting program.

[5] = test system: MCF-7-Dx (human mammary carcinoma); assay: as above; conditions: Homo sapiens, MCF7/DX, 24 h incubation, survival after 48 h; ± SD
Experimental: as §2, §3, §4

[6] = test system: MES-SA Dx (human uterine sarcoma); assay: as above; conditions: Homo sapiens, MES-SA Dx; 24 h incubation, survival after 48 h; ± SD
Experimental: as §2, §3, §4

[7] = test system: NB4 cells (acute promyelocytic leukaemia); assay: Cell differentiation by reduction of nitroblue tetrazolium (NBT), with suboptimal ATRA; conditions: combined with suboptimal doses of ATRA, NBT
Experimental: The first line used was the NB4 cell line, bearing the t(15;17) chromosomal translocation which generates the fusion protein PML/RARα. This line is very sensitive to the differentiative action of pharmacological doses of ATRA (10^−7–10^−6 M).
(§5) The HL60 and NB4 cells were seeded at a density of 150,000 cells/ml in RPMI 1640 medium containing 10% foetal calf serum, and were treated with the tested compounds in the presence and absence of suboptimal doses of ATRA (5–10 nM for NB4 and 0.5 μM for HL60, respectively) in the dark, and returned to the incubator for 3 days without ever replacing the culture medium.
(§6) To analyse the differentiative effect of the tested compounds vs ATRA, on the third day of treatment 500,000 viable cells were harvested from each sample, centrifuged for 10 minutes at 1.000 rpm and resuspended in 1 ml of RPMI 1640 medium containing 10% foetal calf serum, 1 mg/ml of nitroblue tetrazolium (NBT) and 100 ng of PMA (phorbol 12-myristate 13-acetate).
(§7) The cells thus resuspended were incubated in the dark at 37° C. for 60 minutes.
(§8) At the end of the incubation, the cell suspension was centrifuged for 10 minutes at 10,000 rpm; the pellet obtained was then resuspended in 1 ml of PBS containing 10% Triton X-100 and sonicated to lysis.
(§9) Spectrophotometric readings of the samples were then taken at a wavelength of 540 nm: samples containing differentiated cells shifted towards a violet colour, whereas control samples and/or samples with non-differentiated cells were colourless or, at any rate, much less intensely coloured.
(§10) The AC50 (Activating Concentration) is the concentration at which the tested compound induces 50% of cell differentiation.
(§11) Fold Induction is the increase in the differentiation value of the cell sample treated with the tested compound +ATRA vs the value of the cell sample treated with ATRA alone. This value provides an indication of the ability (potency) of the tested compound to enhance ATRA induced cell differentiation.

[8] = test system: HL60 cells (acute promyelocytic leukaemia); assay: as above; conditions: combined with suboptimal doses of ATRA
Experimental: (§12) The second line used was the HL60 cell line which responds to ATRA (but is less sensitive than the NB4 cell line).
as §5, §6, §7, §8, §9, §10, §11

[9] = test system: HL60 cells (acute promyelocytic leukaemia); assay: Flow cytofluorimetric analysis of cell cycle; conditions: for G0/G1 / G2/M / S: day 3
Experimental: as §12, §5
To assess the effect of the tested compounds on the various phases of the cell cycle, on the third day of treatment 500,000 cells were harvested, centrifuged at 1,000 rpm for 10 minutes, washed twice in PBS w/o (PBS without calcium and magnesium) and fixed in a solution of 50% PBS w/o+50% methanol/acetone (1:4 v/v) for at least 1 hour; the cells were then centrifuged as described, washed in PBS w/o and centrifuged again.
200 μl of propidium iodide 100 μg/ml and 200 μl of RNase 150 kU/mg were then added to the cell pellet.
After a 30-min incubation in the dark at room temperature, the samples were analysed by flow cytofluirometry.

## OCCCCC(c1c[nH]c2cc3c(cc12)OCO3)c1c[nH]c2cc3c(cc12)OCO3 [ST 1422, 5-hydroxy-1,1-di-(5,6-methylenedioxy-indol-3-yl)-pentane]
[1]
  IC50: 23 ± 4.4 µM
[2]
  IC50: 43.1 ± 1.2 µM
[3]
  IC50: 79.3 ± 7.8 µM
[4]
  IC50: 22.3 ± 2.9 µM
[5]
  IC50: 40.1 ± 1.2 µM
[6]
  IC50: 73.3 ± 2.7 µM
[7]; Homo sapiens, NB-4, 72 h, 3 days, read-out: AC50 (concentration at which the tested compound induces 50% of cell differentiation)
  AC50: 9.8 ± 0.1 µM
[7]
  fold induction (differentiation, compound + ATRA vs ATRA alone): 1.85
[8]; Homo sapiens, HL-60, 72 h, 3 days, read-out: AC50 (concentration at which the tested compound induces 50% of cell differentiation)
  AC50: 13.6 ± 2.6 µM
[8]
  fold induction (differentiation, compound + ATRA vs ATRA alone): 2.2
[9]; compound 1 μM + ATRA 0.5 μM
  G0/G1: 66.8
  G2/M: 11.0
  S: 22.2
[9]; compound 5 μM + ATRA 0.5 μM
  G0/G1: 65.1
  G2/M: 11.4
  S: 23.5
[9]; compound 10 μM + ATRA 0.5 μM
  G0/G1: 62.5
  G2/M: 12.5
  S: 25.0
[9]; compound 50 μM + ATRA 0.5 μM
  G0/G1: 75.7
  G2/M: 13.8
  S: 10.5
[9]; compound alone
  effect of the compound alone on induction of apoptosis (in words): showed no effect on the induction of apoptosis
[9]; compound alone 1 μM
  G0/G1: 56.2
  G2/M: 10.0
  S: 33.8
[9]; compound alone 5 μM
  G0/G1: 57.6
  G2/M: 10.4
  S: 32.0
[9]; compound alone 10 μM
  G0/G1: 57.8
  G2/M: 10.5
  S: 31.7
[9]; compound alone 50 μM
  G0/G1: 65.8
  G2/M: 16.4
  S: 17.8
